# Publication PMC5437664, “Inhibition of O-GlcNAcase leads to elevation of O-GlcNAc tau and reduction of tauopathy and cerebrospinal fluid tau in rTg4510 mice” (Molecular Neurodegeneration, 2017)
# Molecular target: O-GlcNAcase (OGA) (Mus musculus, UniProt Q9EQQ9)
# Experiment: biochemical
# Sequence of O-GlcNAcase (OGA) (Q9EQQ9 whole entry): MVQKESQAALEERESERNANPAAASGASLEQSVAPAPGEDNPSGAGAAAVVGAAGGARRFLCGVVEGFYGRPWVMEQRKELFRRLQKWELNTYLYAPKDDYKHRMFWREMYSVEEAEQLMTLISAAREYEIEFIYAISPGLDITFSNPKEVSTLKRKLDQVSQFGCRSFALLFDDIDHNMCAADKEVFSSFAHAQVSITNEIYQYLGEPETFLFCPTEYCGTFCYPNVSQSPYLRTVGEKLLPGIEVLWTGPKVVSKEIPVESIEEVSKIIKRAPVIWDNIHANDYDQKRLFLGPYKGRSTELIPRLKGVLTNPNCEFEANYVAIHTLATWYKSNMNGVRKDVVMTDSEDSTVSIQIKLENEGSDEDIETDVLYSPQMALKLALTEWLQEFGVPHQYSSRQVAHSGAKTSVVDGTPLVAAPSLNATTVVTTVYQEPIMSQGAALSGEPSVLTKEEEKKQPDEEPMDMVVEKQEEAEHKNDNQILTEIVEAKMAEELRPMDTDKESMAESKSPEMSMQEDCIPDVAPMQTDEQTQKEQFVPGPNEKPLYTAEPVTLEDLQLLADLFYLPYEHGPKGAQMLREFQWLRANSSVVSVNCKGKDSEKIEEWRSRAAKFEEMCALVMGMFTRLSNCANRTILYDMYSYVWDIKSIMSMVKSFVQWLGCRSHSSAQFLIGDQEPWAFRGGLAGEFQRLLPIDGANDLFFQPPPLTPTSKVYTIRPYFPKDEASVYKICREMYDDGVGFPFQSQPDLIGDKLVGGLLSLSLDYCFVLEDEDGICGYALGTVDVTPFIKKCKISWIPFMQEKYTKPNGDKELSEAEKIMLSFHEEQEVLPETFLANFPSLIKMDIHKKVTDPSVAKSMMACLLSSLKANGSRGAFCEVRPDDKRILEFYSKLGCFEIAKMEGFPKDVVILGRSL
smiles,measurement,value
CCNC1=N[C@@H]2[C@@H](O)[C@H](O)[C@@H](CO)O[C@@H]2S1 [Thiamet G],Kd,1.7 nM
